Values belong to the compound of their own block, whether it stands above or below them.
Legend:
CD4 T cells = assay: TCR-mediated activation of isolated CFSE-labeled CD4 T cells (anti-CD3/anti-CD28): cytokines, proliferation, CD25; type: cell-based, human; conditions: for CD25 expression [% positive cells] Average / Cell Proliferation [Cell divisions/cell] Average / IFN-gamma production [ng/ml] Average / IL-2 production [ng/ml] Average / TNF-alpha production [ng/ml] Average: anti-CD3/anti-CD28
Description: • Buffy coat content was transferred to sterile plastic bottle and filled up to 480 ml with PBS, and distributed equally to 16×50 ml tubes (30 ml/tube) • Underlayed with ˜11 ml Lymphoprep and centrifuged 20 min (2200 rpm) • The interphase containing lymphocytes was taken off with transfer pipette, cells were washed twice with PBS and pooled to one tube to determine cell count (Coulter Diff ACT) Isolation of Immune Cell Subfractions from PBMCs by MACS • PBMCs were resuspended in MACS buffer (80 μl MACS-buffer/10^7 cells) and cells were isolated with Auto-MACS device using respective kits following manufacturer's recommendations TCR Stimulation and Measurement of T Cell Activation
Isolated T cells were plated in Xvivo medium at 1.5*10 ^5 cells per in 96 well culture plates and TCR-stimulated with anti-CD3/28 mAbs in the presence of compound as indicated. Cytokine production was determined at 24 h or 48 h following TCR stimulation in cell culture supernatants using commercially available ELISA kits (BD and eBioscience) as recommended by the manufacturer. T cell proliferation and CD25 expression (CD25-PC5 reagent purchased from Beckman Coulter) was determined by flow cytometry (Beckman-Coulter FC500) and analysed with Kaluza Software. For measurement of CD69 expression, isolated CD4 and CD8 T cells were plated in Xvivo medium at […] per in 96 well culture plates and TCR-stimulated with anti-CD3/28 mAbs in the presence of compound. CD69 expression was determined at 24 h following TCR stimulation by flow cytometry (CD4eF450, CD8APCeF780 and CD69-PC7 reagent purchased from eBioscience) and analysed with Kaluza Software.
Isolated CD4 T cells were CFSE-labeled and stimulated with anti-CD3 and anti-CD28 antibodies.

CD8 T cells = assay: CD69 expression on aCD3/aCD28 stimulated isolated human CD8 T cells (flow cytometry); type: cell-based; conditions: T-cell, 24 h after TCR stimulation, read-out: Activity Class CD69 (CD8)
Procedure, shortened: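 Isolated CD4 and CD8 T cells plated at 80000 cells per well in Xvivo medium and stimulated with anti-CD3/28 mAbs in presence of compound. CD69 expression measured by flow cytometry 24 h after TCR stimulation.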

Monocytes = assay: FC receptor stimulation on myeloid cells (monocytes, precoated anti-GD2-Abs): TNF-alpha, IL-1, IL-6; type: cell-based, human
Description: Isolated Monocytes were plated in Xvivo medium at 1.5*10^5 cells per in 96 well culture plates and stimulated by precoated anti-GD2-Abs (10 μg/ml, Apeiron) where indicated. Cytokine secretion was determined by enzyme-linked immunosorbent assay (ELISA). The results of the above experiment titled “Enhancement of reactivity of immune cells to stimulation by tumor-cell bound therapeutic antibody” indicate that compounds can enhance FcR stimulation of immune cells. However, in a set-up as used therein, it is difficult to subtract the effects of tumor-cell contact from the effects of Fc-receptor stimulation. Therefore, the effect of FcR-stimulation by the same anti-GD2-Ab was tested in a tumor-cell free assay set-up, where the anti-GD2 antibodies were coated to cell culture plates, thereby mimicking cell-bound antibodies.

SMILES: CCCCNC(=O)c1ccc2c(c1)N(Cc1ccc(OC(F)(F)F)cc1)C(=O)[C@@H](N)CS2(=O)=O.Cl [Example 67, (3R)-3-amino-N-butyl-1,1,4-trioxo-5-{[4-(trifluoromethoxy)phenyl]methyl}-2,3,4,5-tetrahydro-1λ^6,5-benzothiazepine-7-carboxamide hydrochloride]
CD25 expression [% positive cells] Average (CD4 T cells; 0.05 μM): 47.88 % positive cells
Cell Proliferation [Cell divisions/cell] Average (CD4 T cells; 0.05 μM): 0.49 Cell divisions/cell
IFN-gamma production [ng/ml] Average (CD4 T cells; 0.05 μM): 0.06 ng/mL
IL-2 production [ng/ml] Average (CD4 T cells; 0.05 μM): 0.13 ng/mL
TNF-alpha production [ng/ml] Average (CD4 T cells; 0.05 μM): 0.26 ng/mL
CD25 expression [% positive cells] Average (CD4 T cells; 0.1 μM): 50.80 % positive cells
Cell Proliferation [Cell divisions/cell] Average (CD4 T cells; 0.1 μM): 0.58 Cell divisions/cell
IFN-gamma production [ng/ml] Average (CD4 T cells; 0.1 μM): 0.10 ng/mL
IL-2 production [ng/ml] Average (CD4 T cells; 0.1 μM): 0.21 ng/mL
TNF-alpha production [ng/ml] Average (CD4 T cells; 0.1 μM): 0.42 ng/mL
CD25 expression [% positive cells] Average (CD4 T cells; 0.25 μM): 59.10 % positive cells
Cell Proliferation [Cell divisions/cell] Average (CD4 T cells; 0.25 μM): 0.84 Cell divisions/cell
IFN-gamma production [ng/ml] Average (CD4 T cells; 0.25 μM): 0.23 ng/mL
IL-2 production [ng/ml] Average (CD4 T cells; 0.25 μM): 0.56 ng/mL
TNF-alpha production [ng/ml] Average (CD4 T cells; 0.25 μM): 0.71 ng/mL
CD25 expression [% positive cells] Average (CD4 T cells; 0.5 μM): 69.50 % positive cells
Cell Proliferation [Cell divisions/cell] Average (CD4 T cells; 0.5 μM): 1.03 Cell divisions/cell
IFN-gamma production [ng/ml] Average (CD4 T cells; 0.5 μM): 0.40 ng/mL
IL-2 production [ng/ml] Average (CD4 T cells; 0.5 μM): 1.00 ng/mL
TNF-alpha production [ng/ml] Average (CD4 T cells; 0.5 μM): 1.12 ng/mL
CD25 expression [% positive cells] Average (CD4 T cells; 1 μM): 79.50 % positive cells
Cell Proliferation [Cell divisions/cell] Average (CD4 T cells; 1 μM): 1.20 Cell divisions/cell
IFN-gamma production [ng/ml] Average (CD4 T cells; 1 μM): 0.64 ng/mL
IL-2 production [ng/ml] Average (CD4 T cells; 1 μM): 2.50 ng/mL
TNF-alpha production [ng/ml] Average (CD4 T cells; 1 μM): 1.65 ng/mL
CD25 expression [% positive cells] Average (CD4 T cells; 2.5 μM): 77.71 % positive cells
Cell Proliferation [Cell divisions/cell] Average (CD4 T cells; 2.5 μM): 1.35 Cell divisions/cell
IFN-gamma production [ng/ml] Average (CD4 T cells; 2.5 μM): 1.46 ng/mL
IL-2 production [ng/ml] Average (CD4 T cells; 2.5 μM): 7.48 ng/mL
TNF-alpha production [ng/ml] Average (CD4 T cells; 2.5 μM): 4.11 ng/mL
CD25 expression [% positive cells] Average (CD4 T cells; 5 μM): 79.53 % positive cells
Cell Proliferation [Cell divisions/cell] Average (CD4 T cells; 5 μM): 1.40 Cell divisions/cell
IFN-gamma production [ng/ml] Average (CD4 T cells; 5 μM): 2.22 ng/mL
IL-2 production [ng/ml] Average (CD4 T cells; 5 μM): 11.11 ng/mL
TNF-alpha production [ng/ml] Average (CD4 T cells; 5 μM): 5.47 ng/mL
CD25 expression [% positive cells] Average (CD4 T cells; 10 μM): 79.64 % positive cells
Cell Proliferation [Cell divisions/cell] Average (CD4 T cells; 10 μM): 1.38 Cell divisions/cell
IFN-gamma production [ng/ml] Average (CD4 T cells; 10 μM): 2.81 ng/mL
IL-2 production [ng/ml] Average (CD4 T cells; 10 μM): 13.62 ng/mL
TNF-alpha production [ng/ml] Average (CD4 T cells; 10 μM): 7.19 ng/mL
CD25 expression [% positive cells] Average (CD4 T cells; 20 μM): 75.14 % positive cells
Cell Proliferation [Cell divisions/cell] Average (CD4 T cells; 20 μM): 1.33 Cell divisions/cell
IFN-gamma production [ng/ml] Average (CD4 T cells; 20 μM): 3.29 ng/mL
IL-2 production [ng/ml] Average (CD4 T cells; 20 μM): 15.11 ng/mL
TNF-alpha production [ng/ml] Average (CD4 T cells; 20 μM): 9.31 ng/mL
T cell proliferation and expression of the surface activation marker CD25 (CD4 T cells; anti-CD3 and anti-CD28): enhanced
production of key cytokines (IL-2, IFN-gamma, TNF-alpha) (CD4 T cells; anti-CD3 and anti-CD28): strongly enhanced

EC50 (CD8 T cells): < 1.58 µM
SMILES: Cl.N[C@H]1CS(=O)(=O)c2cc(F)c(C(=O)NCCCC(F)(F)F)cc2N(Cc2ccc(Cl)cc2)C1=O [Example 70, (3R)-3-amino-5-[(4-chlorophenyl)methyl]-8-fluoro-1,1,4-trioxo-N-(4,4,4-trifluoro-butyl)-2,3,4,5-tetrahydro-1λ^6,5-benzothiazepine-7-carboxamide hydrochloride]

SMILES: CC(C)NC(=O)c1cc2c(cc1F)S(=O)(=O)C[C@H](N)C(=O)N2Cc1ccc(Cl)cc1.Cl [Example 77, (3R)-3-amino-5-[(4-chlorophenyl)methyl]-8-fluoro-1,1,4-trioxo-N-(propan-2-yl)-2,3,4,5-tetrahydro-1λ^6,5-benzothiazepine-7-carboxamide hydrochloride]
IL-1 (Monocytes; FcR stimulated, 0.01 μM): 1.14 ng/mL
IL-6 (Monocytes; FcR stimulated, 0.01 μM): 1.61 ng/mL
TNF-alpha (Monocytes; FcR stimulated, 0.01 μM): 1.62 ng/mL
IL-1 (Monocytes; FcR stimulated, 0.03 μM): 1.52 ng/mL
IL-6 (Monocytes; FcR stimulated, 0.03 μM): 2.33 ng/mL
TNF-alpha (Monocytes; FcR stimulated, 0.03 μM): 2.49 ng/mL
IL-1 (Monocytes; FcR stimulated, 0.1 μM): 1.09 ng/mL
IL-6 (Monocytes; FcR stimulated, 0.1 μM): 2.10 ng/mL
TNF-alpha (Monocytes; FcR stimulated, 0.1 μM): 2.57 ng/mL
IL-1 (Monocytes; FcR stimulated, 0.3 μM): 4.16 ng/mL
IL-6 (Monocytes; FcR stimulated, 0.3 μM): 5.65 ng/mL
TNF-alpha (Monocytes; FcR stimulated, 0.3 μM): 6.57 ng/mL
IL-1 (Monocytes; FcR stimulated, 1 μM): 5.88 ng/mL
IL-6 (Monocytes; FcR stimulated, 1 μM): 7.46 ng/mL
TNF-alpha (Monocytes; FcR stimulated, 1 μM): 11.02 ng/mL
IL-1 (Monocytes; FcR stimulated, 3 μM): 5.50 ng/mL
IL-6 (Monocytes; FcR stimulated, 3 μM): 5.93 ng/mL
TNF-alpha (Monocytes; FcR stimulated, 3 μM): 14.11 ng/mL
IL-1 (Monocytes; FcR stimulated, 10 μM): 7.44 ng/mL
IL-6 (Monocytes; FcR stimulated, 10 μM): 5.86 ng/mL
TNF-alpha (Monocytes; FcR stimulated, 10 μM): 16.44 ng/mL
IL-1 (Monocytes; FcR stimulated, 30 μM): 7.77 ng/mL
IL-6 (Monocytes; FcR stimulated, 30 μM): 6.20 ng/mL
TNF-alpha (Monocytes; FcR stimulated, 30 μM): 14.85 ng/mL
activation of myeloid cells by FcR stimulation (TNF-alpha, IL-1, IL-6 secretion) (Monocytes; monocytes, plate-coated anti-GD2 antibodies): directly enhanced the activation of myeloid cells by FcR stimulation, which resulted in increased secretion of TNF-alpha, IL-1 and IL-6
IL-6 (Monocytes; unstimulated, 0.1 μM): 0.14 ng/mL
IL-6 (Monocytes; unstimulated, 0.3 μM): 0.13 ng/mL
IL-6 (Monocytes; unstimulated, 1 μM): 0.14 ng/mL
IL-6 (Monocytes; unstimulated, 3 μM): 0.13 ng/mL
IL-6 (Monocytes; unstimulated, 10 μM): 0.13 ng/mL
IL-6 (Monocytes; unstimulated, 30 μM): 0.13 ng/mL
TNF-alpha (Monocytes; unstimulated, 30 μM): 0.02 ng/mL

From US10472341B2, “Bicyclic tetrahydrothiazepine derivatives useful for the treatment of neoplastic and/or infectious diseases” (APEIRON BIOLOGICS AG, priority 2015, dated 2019)
